{"source": "patent US8303960B2", "about": "“Radiolabeled affibody molecules” (The United States of America, as represented by the …, priority 2007, dated 2012)", "type_in_all_cases": "in vivo, mice", "key": {"[1]": {"tested_on": "HER2", "test": "Ex-vivo ELISA of tumor tissue lysates after 17-DMAG treatment", "protocol": "(§1) Mice bearing BT-474 or MCF7/clone18 subcutaneous tumors are treated with two doses (30-50 mg/kg, 12 or 24 h apart) of 17-DMAG. Animals (n=4-6) are scanned before, 36 h, and 84 h after the treatment. Immediately after the last scan, the animals are euthanized, and the tumors are frozen for further analysis. HER2 expression in the tumors is then measured ex-vivo by western blot (Table 2) and ELISA (Table 3)."}, "[2]": {"tested_on": "HER2", "test": "Ex-vivo western blot of tumor tissue lysates after 17-DMAG treatment", "conditions": "for HER2 western blot signal, fraction of control lane (in parentheses): lane (3) relative to lane (1); for HER2 western blot, mean intensity of the signal: after 17-DMAG", "protocol": "as §1"}, "[3]": {"tested_on": "HER2", "test": "PET imaging of ^18F-ZHER2-affibody tumor uptake before and after 17-DMAG", "conditions": "84 h post-treatment; BT-474 and MCF7/clone 18 tumors", "protocol": "as §1, with “3). In animals treated with 17-DMAG, the accumulation of radioactivity estimated by PET imaging decreases 50-70% at 84 h post-treatment (FIGS. 11 and 12). This change is confirmed by the biodistribution studies, see, e.g., FIG. 13.” for “3).”"}}, "note": "Where “and” joins values, the source holds several entries; their conditions need not be identical. Equal values may be shown once."}
{"molecule": "CO[C@H]1/C=C\\C=C(/C)C(=O)NC2=CC(=O)C(NCCN(C)C)=C(C[C@@H](C)C[C@H](OC)[C@H](O)[C@@H](C)/C=C(\\C)[C@@H]1OC(N)=O)C2=O", "note": "[17-DMAG, 17-dimethylaminoethylamino-17-demethoxygeldanamycin]", "values": [{"measurement": "HER2 in tissue lysate (ELISA)", "setting": "[1]; BT-474 tumor after 17-DMAG, Trial 1", "value": 541.41, "unit": "fmol/mg protein"}, {"measurement": "HER2 in tissue lysate (ELISA)", "setting": "[1]; BT-474 tumor after 17-DMAG, Trial 2", "value": 504.86, "unit": "fmol/mg protein"}, {"measurement": "HER2 (ELISA), fraction of untreated control (in parentheses)", "setting": "[1]; BT-474 tumor, Trial 1", "value": "(0.35)"}, {"measurement": "HER2 (ELISA), fraction of untreated control (in parentheses)", "setting": "[1]; BT-474 tumor, Trial 2", "value": "(0.30)"}, {"measurement": "HER2 in tissue lysate (ELISA)", "setting": "[1]; MCF7/clone 18 tumor after 17-DMAG, Trial 1", "value": 602.19, "unit": "fmol/mg protein"}, {"measurement": "HER2 in tissue lysate (ELISA)", "setting": "[1]; MCF7/clone 18 tumor after 17-DMAG, Trial 2", "value": 516.77, "unit": "fmol/mg protein"}, {"measurement": "HER2 (ELISA), fraction of untreated control (in parentheses)", "setting": "[1]; MCF7/clone 18 tumor, Trial 1", "value": "(0.43)"}, {"measurement": "HER2 (ELISA), fraction of untreated control (in parentheses)", "setting": "[1]; MCF7/clone 18 tumor, Trial 2", "value": "(0.36)"}, {"measurement": "HER2 western blot signal, fraction of control lane (in parentheses)", "setting": "[2]; dry transfer", "value": "(0.36)"}, {"measurement": "HER2 western blot, mean intensity of the signal", "setting": "[2]; dry transfer, lane (3)", "value": 43.24, "unit": "DU"}, {"measurement": "HER2 western blot, mean intensity of the signal", "setting": "[2]; dry transfer, lanes (5) and (6)", "value": "99.85 DU and 88.68 DU"}, {"measurement": "decrease of HER2 expression", "setting": "[2]; ex vivo analysis of tumor samples by western blots and ELISA", "value": "50-70%"}, {"measurement": "HER2 western blot signal, fraction of control lane (in parentheses)", "setting": "[2]; wet transfer", "value": "(0.34)"}, {"measurement": "HER2 western blot, mean intensity of the signal", "setting": "[2]; wet transfer, lane (3)", "value": 83.08, "unit": "DU"}, {"measurement": "HER2 western blot, mean intensity of the signal", "setting": "[2]; wet transfer, lanes (5) and (6)", "value": "187.69 DU and 156.39 DU"}, {"measurement": "decrease of accumulation of radioactivity estimated by PET imaging", "setting": "[3]", "value": "50-70%"}]}
